In patent publication EP4268824A1 (Manros Therapeutics, priority 2022, dated 2023):
Like-named read-outs stand apart in the source and are kept apart here.

How the values were obtained:
CLK3 = CLK3 (Homo sapiens, UniProt P49761); assay: Kinase inhibition, dose-response; assay type: biochemical; details: > 10: no inhibition at 10 µM, the highest dose tested
Procedure: (§1) All compounds were additionally tested over a range of concentrations for their ability to inhibit a series of 14 kinases. IC50 values were calculated from the dose-response curves and are reported in µM. > 10, no inhibition at 10 µM, the highest dose tested (see table 6 below). [drawing 409] Table 5: CFE cells were treated with Trikafta in the presence of increasing concentrations of various compounds and their N7-methylated counterparts. Their F508del-CFTR activity is reported as percentage of F508del-CFTR activity in the presence of Trikafta alone (100%).

CK1γ2 = CK1γ2 (Homo sapiens, UniProt P78368); assay: Kinase inhibition, dose-response; assay type: biochemical; details: > 10: no inhibition at 10 µM, the highest dose tested
Procedure: as §1

DYRK1A = DYRK1A (Homo sapiens, UniProt Q13627); assay: Kinase inhibition, dose-response; assay type: biochemical; details: > 10: no inhibition at 10 µM, the highest dose tested
Procedure: as §1

CLK1 = CLK1 (Homo sapiens, UniProt P49759); assay: Kinase inhibition, dose-response; assay type: biochemical; details: > 10: no inhibition at 10 µM, the highest dose tested
Procedure: as §1

CDK2 = CDK2 (Homo sapiens, UniProt P24941); assay: Kinase inhibition, dose-response; assay type: biochemical; details: > 10: no inhibition at 10 µM, the highest dose tested
Procedure: as §1

CDK9 = CDK9 (Homo sapiens, UniProt P50750); assay: Kinase inhibition, dose-response; assay type: biochemical; details: > 10: no inhibition at 10 µM, the highest dose tested
Procedure: as §1

CLK2 = CLK2 (Homo sapiens, UniProt P49760); assay: Kinase inhibition, dose-response; assay type: biochemical; details: > 10: no inhibition at 10 µM, the highest dose tested
Procedure: as §1

CK1γ3 = CK1γ3 (Homo sapiens, UniProt Q9Y6M4); assay: Kinase inhibition, dose-response; assay type: biochemical; details: > 10: no inhibition at 10 µM, the highest dose tested
Procedure: as §1

CK1δ = CK1δ (Homo sapiens, UniProt P48730); assay: Kinase inhibition, dose-response; assay type: biochemical; details: > 10: no inhibition at 10 µM, the highest dose tested
Procedure: as §1

CK1α1 = CK1α1 (Homo sapiens, UniProt P48729); assay: Kinase inhibition, dose-response; assay type: biochemical; details: > 10: no inhibition at 10 µM, the highest dose tested
Procedure: as §1

CDK7 = CDK7 (Homo sapiens, UniProt P50613); assay: Kinase inhibition, dose-response; assay type: biochemical; details: > 10: no inhibition at 10 µM, the highest dose tested
Procedure: as §1

CK1γ1 = CK1γ1 (Homo sapiens, UniProt Q9HCP0); assay: Kinase inhibition, dose-response; assay type: biochemical; details: > 10: no inhibition at 10 µM, the highest dose tested
Procedure: as §1

CK1ε = CK1ε (Homo sapiens, UniProt P49674); assay: Kinase inhibition, dose-response; assay type: biochemical; details: > 10: no inhibition at 10 µM, the highest dose tested
Procedure: as §1

F508del-CFTR [1] = target: T1, F508del-CFTR (Homo sapiens, UniProt P13569, DEL508-508); assay: CFTR activation assay: short-circuit current measurements (Ussing chamber) in CFBE cells treated 24 h with CFTR modulator(s) plus compound; assay type: cell-based; details: for F508del-CFTR activity as percentage of F508del-CFTR activity in the presence of Trikafta alone (100%): CFE cells, with Trikafta
T1 construct: expressed in transfected cells; host or cells: CFBE41o- cells (CFBE F508del-CFTR), puromycin-selected
Procedure: • FIG 1. represents the conductance measurement as a function of time for assessing the activity of F508del-CFTR in CFBE cells using the Ussing chamber as set forth in example 13. Cells are incubated for 24 hours with either Trikafta® alone or Trikafta® + a compound of formula (I) as defined herein after. Conductance is measured as a function of time. […] This is the measure which are reported in all Tables shown below. • FIG 2. The correcting effect of Trikafta® on F508del-CFTR in a pulmonary epithelial cell line derived from a F508del-CFTR CF patient was tested as set forth in example 13 herein after in the presence of increasing concentrations of compound (44) as defined herein after and compound (107) as defined herein after. Dose-response curves were built from the activation and inhibition data (see FIG. 1). 100% represents the activity of Trikafta® alone. • FIG 3. […] CFE cells were treated with Trikafta® 100%, 33%, or 11%, in the absence or presence of 1 µM of compound (107). F508del-CFTR activity was monitored as described in the Experimental section and above. Activity is reported as percentage of δF508del-CFTR activity in the presence of Trikafta® alone (100%). The fold change over the activity of Trikafta® alone is indicated in parentheses. • FIG 4. The correcting effect of further CFTR modulators than Trikafta®, i.e. Galapagos compounds as defined herein after (GLPG 222 (G1), GLPG 1837 (G2), GLPG 2451 (G3)) (1 µM each) on F508del-CFTR in a pulmonary epithelial cell line derived from a F508del-CFTR CF patient was tested as set forth in example 13 herein after in the presence of increasing concentrations of compound (107) as defined herein after. Dose-response curves were built from the activation and inhibition data (see FIG. 1). 100% represents the activity of each CFTR modulator alone.
The activity of F508del-CFTR was indeed estimated according to the method described below in example 13. This method makes use of CFBE cells, an immortalized cell line generated from bronchial epithelium of a CF patient homozygous for F508del-CFTR [Kunzelmann, K. et al., 1993. An immortalized cystic fibrosis tracheal epithelial cell line homozygous for the F508del CFTR mutation. Am. J. Respir. Cell Mol. Biol. 8, 522-529.]. Cells are exposed for 24 hours to a combination of Trikafta® and a compound of formula (I) as defined herein after to be evaluated, and the activity of F508del-CFTR is measured by conductance in a Ussing chamber. The activation is initiated by addition of Forskolin (1 µM). […] All compounds tested were evaluated in combination with Trikafta®. In most instances, compounds were tested in triplicates at 0.1, 1 and 10 µM.
Wild-type CFBE cells (containing full-length, unmutated CFTR) are used as a reference.
F508del-CFTR expressing cells used in this present study were treated with CFTR modulators 24 h prior the experiments. The following CFTR modulators were used: Vx770 (Ivacaftor) (Selleckchem, S 1144) (Selleckchem, 24, rue des Tuileries, BP684, 67460 Souffelweyersheim, France), Vx445 (Elexacaftor) (Selleckchem, SE-S8851), Vx661 (Tezacaftor) (TargetMol, HY-15448) (TargetMol, Tebu-bio, 39 rue de Houdan, BP 15, 78612 Le-Perray-en-Yvelines cedex, France). Trikafta® is the combination of 1 µM Vx770, 3 µM Vx 445 and […] Vx661.
CFBE cell line stably expressing F508del-CFTR or WT-CFTR (CFBE WT-CFTR) were grown at 37°C in 5% CO2 - 95% air and media was replaced every 2 days.

CLK4 = CLK4 (Homo sapiens, UniProt Q9HAZ1); assay: Kinase inhibition, dose-response; assay type: biochemical
From the text: All compounds were additionally tested over a range of concentrations for their ability to inhibit a series of 14 kinases. […] Their F508del-CFTR activity is reported as percentage of F508del-CFTR activity in the presence of Trikafta alone (100%).

LogD determined by HPLC = assay type: physicochemical
alveolar macrophages = details: Riazanski et al. 2015; cited from earlier work
F508del-CFTR [2] = details: Norez et al. 2014; cited from earlier work
[3] = read-out: IC50 CLK4, > 10: no inhibition at 10 µM, the highest dose tested

Sequence of CK1γ3 (Q9Y6M4 whole entry): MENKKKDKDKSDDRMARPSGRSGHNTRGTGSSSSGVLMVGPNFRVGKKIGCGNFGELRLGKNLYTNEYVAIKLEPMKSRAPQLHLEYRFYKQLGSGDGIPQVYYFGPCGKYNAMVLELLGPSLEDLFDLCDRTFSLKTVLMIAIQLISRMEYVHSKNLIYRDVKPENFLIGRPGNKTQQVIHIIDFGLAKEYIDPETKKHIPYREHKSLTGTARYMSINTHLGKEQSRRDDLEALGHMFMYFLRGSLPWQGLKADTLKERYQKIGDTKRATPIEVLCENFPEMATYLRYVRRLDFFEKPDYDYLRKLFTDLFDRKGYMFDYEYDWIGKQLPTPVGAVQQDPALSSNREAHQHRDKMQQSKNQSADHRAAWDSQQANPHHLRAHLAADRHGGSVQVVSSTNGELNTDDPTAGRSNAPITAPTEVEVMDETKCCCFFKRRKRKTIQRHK
Sequence of CLK3 (P49761 whole entry, species assumed): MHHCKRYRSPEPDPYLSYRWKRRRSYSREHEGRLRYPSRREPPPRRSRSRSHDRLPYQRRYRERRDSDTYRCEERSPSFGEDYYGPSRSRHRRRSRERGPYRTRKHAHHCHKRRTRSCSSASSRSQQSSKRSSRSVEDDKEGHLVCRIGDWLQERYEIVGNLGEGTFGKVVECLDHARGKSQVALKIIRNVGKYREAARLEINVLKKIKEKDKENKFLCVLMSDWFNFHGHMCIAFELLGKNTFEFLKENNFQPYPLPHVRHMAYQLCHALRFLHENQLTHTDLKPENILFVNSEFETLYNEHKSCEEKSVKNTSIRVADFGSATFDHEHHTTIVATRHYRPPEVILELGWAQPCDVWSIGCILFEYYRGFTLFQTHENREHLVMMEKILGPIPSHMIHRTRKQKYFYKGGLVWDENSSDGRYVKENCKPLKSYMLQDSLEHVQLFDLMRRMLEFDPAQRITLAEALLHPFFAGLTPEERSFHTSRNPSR
Sequence of CK1γ2 (P78368 whole entry): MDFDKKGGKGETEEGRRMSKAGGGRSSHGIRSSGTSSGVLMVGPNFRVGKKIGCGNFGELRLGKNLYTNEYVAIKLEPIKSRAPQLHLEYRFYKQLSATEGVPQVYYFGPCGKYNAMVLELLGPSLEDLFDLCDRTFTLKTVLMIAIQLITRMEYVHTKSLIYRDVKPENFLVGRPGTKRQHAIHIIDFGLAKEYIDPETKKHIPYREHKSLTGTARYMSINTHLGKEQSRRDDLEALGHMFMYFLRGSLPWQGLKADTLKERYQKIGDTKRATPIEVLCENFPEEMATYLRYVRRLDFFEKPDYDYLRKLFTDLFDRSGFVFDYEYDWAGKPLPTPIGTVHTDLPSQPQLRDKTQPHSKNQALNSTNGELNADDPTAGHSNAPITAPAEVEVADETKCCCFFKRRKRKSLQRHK
Sequence of CLK1 (P49759 whole entry): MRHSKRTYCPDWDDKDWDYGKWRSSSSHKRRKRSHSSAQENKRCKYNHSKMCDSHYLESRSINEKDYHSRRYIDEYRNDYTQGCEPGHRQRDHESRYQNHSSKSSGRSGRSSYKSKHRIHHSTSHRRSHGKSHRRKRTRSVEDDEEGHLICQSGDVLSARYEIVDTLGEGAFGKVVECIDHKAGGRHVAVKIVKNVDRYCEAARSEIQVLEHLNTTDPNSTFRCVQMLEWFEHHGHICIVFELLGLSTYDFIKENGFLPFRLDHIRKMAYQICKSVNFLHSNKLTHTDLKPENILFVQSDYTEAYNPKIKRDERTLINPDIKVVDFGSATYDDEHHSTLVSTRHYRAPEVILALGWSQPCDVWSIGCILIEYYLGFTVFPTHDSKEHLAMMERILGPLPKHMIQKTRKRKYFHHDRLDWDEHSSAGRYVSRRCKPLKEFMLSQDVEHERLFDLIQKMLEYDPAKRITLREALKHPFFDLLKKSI
Sequence of CK1δ (P48730 whole entry): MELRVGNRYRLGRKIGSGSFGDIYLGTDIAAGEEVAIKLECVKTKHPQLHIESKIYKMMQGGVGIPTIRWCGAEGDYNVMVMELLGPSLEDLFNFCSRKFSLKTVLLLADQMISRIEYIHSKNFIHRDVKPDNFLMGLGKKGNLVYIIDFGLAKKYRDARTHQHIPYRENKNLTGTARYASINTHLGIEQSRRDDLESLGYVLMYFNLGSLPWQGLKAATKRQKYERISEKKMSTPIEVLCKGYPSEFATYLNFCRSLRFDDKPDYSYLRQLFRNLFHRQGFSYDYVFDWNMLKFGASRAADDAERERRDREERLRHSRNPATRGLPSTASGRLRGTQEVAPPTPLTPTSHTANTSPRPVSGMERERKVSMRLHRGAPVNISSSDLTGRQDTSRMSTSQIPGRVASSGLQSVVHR
T1 sequence (P13569 with tags, fused parts or gaps DEL508-508): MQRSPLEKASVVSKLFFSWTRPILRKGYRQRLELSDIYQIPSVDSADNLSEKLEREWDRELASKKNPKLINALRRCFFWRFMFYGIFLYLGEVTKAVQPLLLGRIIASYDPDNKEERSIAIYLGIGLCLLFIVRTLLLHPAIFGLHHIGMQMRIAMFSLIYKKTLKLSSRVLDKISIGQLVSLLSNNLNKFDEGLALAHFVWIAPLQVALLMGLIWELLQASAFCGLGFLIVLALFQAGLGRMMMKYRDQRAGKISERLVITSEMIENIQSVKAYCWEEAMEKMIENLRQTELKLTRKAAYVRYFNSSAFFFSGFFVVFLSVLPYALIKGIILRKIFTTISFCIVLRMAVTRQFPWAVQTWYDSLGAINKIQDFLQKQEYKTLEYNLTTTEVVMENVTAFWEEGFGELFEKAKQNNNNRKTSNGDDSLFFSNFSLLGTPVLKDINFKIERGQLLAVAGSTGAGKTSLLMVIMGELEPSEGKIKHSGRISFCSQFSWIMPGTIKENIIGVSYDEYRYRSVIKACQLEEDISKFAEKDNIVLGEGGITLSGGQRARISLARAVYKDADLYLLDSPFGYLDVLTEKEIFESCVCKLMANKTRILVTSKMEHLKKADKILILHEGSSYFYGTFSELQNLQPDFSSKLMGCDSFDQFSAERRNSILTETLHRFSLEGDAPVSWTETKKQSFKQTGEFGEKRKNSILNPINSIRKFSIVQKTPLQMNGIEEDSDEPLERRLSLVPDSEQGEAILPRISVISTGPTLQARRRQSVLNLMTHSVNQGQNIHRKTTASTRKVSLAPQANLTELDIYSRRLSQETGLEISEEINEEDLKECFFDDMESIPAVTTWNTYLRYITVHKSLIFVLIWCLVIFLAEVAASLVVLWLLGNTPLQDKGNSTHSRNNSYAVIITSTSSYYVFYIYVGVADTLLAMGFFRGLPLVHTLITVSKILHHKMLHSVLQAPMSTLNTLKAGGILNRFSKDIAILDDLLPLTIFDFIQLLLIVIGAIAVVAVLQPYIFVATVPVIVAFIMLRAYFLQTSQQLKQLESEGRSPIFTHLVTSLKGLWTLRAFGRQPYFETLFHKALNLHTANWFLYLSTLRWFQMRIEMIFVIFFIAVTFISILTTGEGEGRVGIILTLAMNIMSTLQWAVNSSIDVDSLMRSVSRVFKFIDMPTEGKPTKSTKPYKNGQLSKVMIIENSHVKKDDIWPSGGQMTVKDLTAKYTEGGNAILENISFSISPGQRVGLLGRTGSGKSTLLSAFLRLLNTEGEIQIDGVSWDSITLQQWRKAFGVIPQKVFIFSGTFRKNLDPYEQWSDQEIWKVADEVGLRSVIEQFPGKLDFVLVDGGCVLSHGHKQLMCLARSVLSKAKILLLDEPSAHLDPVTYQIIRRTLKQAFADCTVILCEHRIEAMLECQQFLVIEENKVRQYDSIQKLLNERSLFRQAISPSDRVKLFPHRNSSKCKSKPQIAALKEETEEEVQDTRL
Sequence of CK1γ1 (Q9HCP0 whole entry): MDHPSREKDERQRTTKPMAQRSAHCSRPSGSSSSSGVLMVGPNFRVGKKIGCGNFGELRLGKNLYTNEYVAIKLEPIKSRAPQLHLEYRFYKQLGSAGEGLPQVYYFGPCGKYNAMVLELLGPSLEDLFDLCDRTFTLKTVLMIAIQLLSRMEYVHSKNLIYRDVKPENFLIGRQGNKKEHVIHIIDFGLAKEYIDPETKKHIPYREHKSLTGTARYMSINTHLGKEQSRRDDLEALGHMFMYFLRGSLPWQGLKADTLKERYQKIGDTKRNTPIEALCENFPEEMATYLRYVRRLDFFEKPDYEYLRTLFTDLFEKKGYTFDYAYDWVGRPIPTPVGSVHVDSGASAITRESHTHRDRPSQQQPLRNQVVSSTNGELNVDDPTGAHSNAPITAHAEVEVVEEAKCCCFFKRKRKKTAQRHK
Sequence of CLK2 (P49760 whole entry, species assumed): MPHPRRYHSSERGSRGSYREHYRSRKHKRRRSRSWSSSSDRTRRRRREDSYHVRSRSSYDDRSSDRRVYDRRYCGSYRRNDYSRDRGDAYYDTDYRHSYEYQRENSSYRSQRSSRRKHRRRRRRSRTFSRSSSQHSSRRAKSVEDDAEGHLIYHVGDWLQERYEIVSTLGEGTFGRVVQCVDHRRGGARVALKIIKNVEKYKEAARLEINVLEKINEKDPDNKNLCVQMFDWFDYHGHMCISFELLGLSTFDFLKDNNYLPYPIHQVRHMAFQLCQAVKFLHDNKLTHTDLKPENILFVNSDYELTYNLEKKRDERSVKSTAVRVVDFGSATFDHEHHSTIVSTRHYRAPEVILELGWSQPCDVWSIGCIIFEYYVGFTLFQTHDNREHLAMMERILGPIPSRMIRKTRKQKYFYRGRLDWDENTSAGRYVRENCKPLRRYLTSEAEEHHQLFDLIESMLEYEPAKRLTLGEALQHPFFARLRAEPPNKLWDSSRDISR
Sequence of CK1α1 (P48729 whole entry): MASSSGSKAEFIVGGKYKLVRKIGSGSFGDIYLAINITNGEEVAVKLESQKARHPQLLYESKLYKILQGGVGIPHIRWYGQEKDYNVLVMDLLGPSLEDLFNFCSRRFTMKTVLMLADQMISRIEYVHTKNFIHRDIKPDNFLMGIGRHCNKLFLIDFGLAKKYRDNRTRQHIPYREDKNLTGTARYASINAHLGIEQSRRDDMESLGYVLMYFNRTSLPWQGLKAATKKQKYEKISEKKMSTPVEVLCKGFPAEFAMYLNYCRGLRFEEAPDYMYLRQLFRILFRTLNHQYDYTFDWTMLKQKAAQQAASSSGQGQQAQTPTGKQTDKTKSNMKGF

Structure (SMILES) | IC50 (CLK3) | IC50 (CK1γ2) | IC50 (DYRK1A) | IC50 (CLK1) | IC50 (CDK2) | IC50 (CDK9) | IC50 (CLK2) | IC50 (CK1γ3) | IC50 (CK1δ) | IC50 (CK1α1) | IC50 (CDK7) | IC50 (CK1γ1) | IC50 (CK1ε) | F508del-CFTR activity as percentage of F508del-CFTR activity in the presence of Trikafta alone (100%) (F508del-CFTR [1]; concentration 0.1 µM) | F508del-CFTR activity as percentage of F508del-CFTR activity in the presence of Trikafta alone (100%) (F508del-CFTR [1]; concentration 1 µM) | F508del-CFTR activity as percentage of F508del-CFTR activity in the presence of Trikafta alone (100%) (F508del-CFTR [1]; concentration 10 µM) | IC50 (CLK4; [3]) | chromatographic logD (LogD determined by HPLC) | other results
CC(C)c1cnc2c(N(C)Cc3ccccc3)nc(N[C@@H]3CCOC3)nn12 [compound 32] | > 10 µM | > 10 µM | > 10 µM | > 10 µM | > 10 µM | > 10 µM | > 10 µM | > 10 µM | > 10 µM | > 10 µM | > 10 µM | > 10 µM | > 10 µM | 117.9% | 113.7% | 135.1% | > 10 µM | – | –
CC(C)c1cnc2c(NCc3ccccc3)nc(NC3CCOCC3)nn12 [compound 44] | > 10 µM | > 10 µM | 6.53 µM | 0.537 µM | 0.579 µM | 1.17 µM | 0.493 µM | > 10 µM | 0.626 µM | > 10 µM | 0.207 µM | > 10 µM | 1.73 µM | – | – | – | – | – | IC50 (CLK4): 0.58 µM
CC(C)c1cnc2c(N(C)Cc3ccccc3)nc(NC3CCOCC3)nn12 [compound 49] | > 10 µM | > 10 µM | > 10 µM | > 10 µM | > 10 µM | > 10 µM | > 10 µM | > 10 µM | > 10 µM | > 10 µM | > 10 µM | > 10 µM | > 10 µM | 113.0% | 125.9% | 147.1% | > 10 µM | – | –
CC(C)c1cnc2c(NCc3ccccc3)nc(Nc3ccnn3C)nn12 [compound 107, N4-Benzyl-7-isopropyl-N2-(2-methylpyrazol-3-yl)imidazo[2,1-f][1,2,4]triazine-2,4-diamine] | – | – | – | – | – | – | – | – | – | – | – | – | – | – | – | – | – | 2.98 | F508del-CFTR activation with diluted Trikafta® (F508del-CFTR [1]; Trikafta® 100%, 33% or 11%, absence or presence of 1 µM compound, FIG 3): compensates the dilution of Trikafta®
Cc1cc(C)nc(CNc2nc(NCc3ccccc3)c3ncc(C(C)C)n3n2)n1 [compound 127, N4-Benzyl-N2-[(4,6-dimethylpyrimidin-2-yl)methyl]-7-isopropyl-imidazo[2,1-f][1,2,4]triazine-2,4-diamine] | – | – | – | – | – | – | – | – | – | – | – | – | – | – | – | – | – | 3.28 | –
CC[C@H](CO)Nc1nc(NCc2ccccc2)c2ncn(C(C)C)c2n1 [roscovitine] | – | – | – | – | – | – | – | – | – | – | – | – | – | – | – | – | – | – | intra-phagolysosomal pH of alveolar macrophages (alveolar macrophages): reduce the intra-phagolysosomal pH of alveolar macrophages; activating or boosting activity on a human lung epithelium cell line with F508del-CFTR mutation, in combination with Trikafta® (F508del-CFTR [1]; result in words): no activating or boosting activity; correction of the defective function of F508del-CFTR (F508del-CFTR [2]): partially correct the defective function of F508del-CFTR
